{"source": "patent US8932614B2", "about": "“Incorporation of particulate ceragenins in polymers” (priority 2011, dated 2015)", "key": {"MRSA": {"system": "MRSA", "experiment": "Coated titanium bone plugs in broth challenged with MRSA (planktonic, FIG. 4)", "format": "cell-based, methicillin-resistant Staphylococcus aureus", "conditions": "for viable bacteria per tube: 4 and 8 hour time points, challenge ~5×10^8 CFU MRSA; for viable bacteria: 24 hour time point", "protocol": "To confirm that medical devices coated with the ceragenin-containing composites described herein are able to kill bacteria, various groups of titanium bone plugs were prepared. The titanium bone plugs were either uncoated, coated with MED-6607 ceragenin-containing silicone polymer prepared as described above, or with MED-6607 silicone polymer only. In the groups of bone plugs that were coated with ceragenin-containing silicone polymer, the silicone either contained 16 wt %, 18 wt %, or 20 wt % ceragenin. Specifically, the groups of bone plugs were as follows: • 0%—a titanium bone plug coated with silicone polymer with no ceragenin • 16%—a titanium bone plug coated with silicone polymer containing 16% CSA-13 (w/w) • 18%—a titanium bone plug coated with silicone polymer containing 18% CSA-13 (w/w) • […] • titanium—a titanium bone plug with no coating\nThe bone plugs were placed into broth (e.g., 30 ml of broth) and challenged with ˜5×10^8 colony forming units (CFU) of MRSA. In addition, a broth/MRSA-only control was prepared. Samples were withdrawn from each of the tubes at 0, 1, 2, 4, 8, 24, and 48 hours. The data for the 0, 1, 2, 4, 8, and 24 hour data points are graphed in FIG. 4.\nIn contrast, the 16% tubes each contained about 1×10^3 CFU and the 20% tubes each contained about 5×10^2 CFU."}, "biofilms": {"system": "biofilms", "experiment": "Coated bone plates implanted into animals and challenged with biofilms", "format": "in vivo, sheep", "conditions": "CSA-13 coated stainless steel plates", "from_the_text": "Similar results were obtained in vivo when bone plates were coated with ceragenin-containing composites and were compared with bone plates coated with polymer only, then implanted into animals and challenged with biofilms. […] In contrast, 100% of animals who received polymer-only bone plates developed infection when they were infected with biofilms and bacterial loads in and around the infection site exceeded 10^6 bacterial cells per gram of tissue, which is well above the standard for infection.\nIn addition, histological sections were compared from animals receiving bone plates. […] Two sheep in Group 1 were euthanized after one week due to the severity of their infections. […] And while inflammation was present in sheep from all groups, with the highest level of inflammation being present in Group 1 sheep, this is a normal response to surgical trauma."}}, "data": [{"compound": "CCCCCCCCNCCC[C@@H](C)[C@H]1CC[C@H]2[C@@H]3[C@H](OCCCN)C[C@@H]4C[C@H](OCCCN)CC[C@]4(C)[C@H]3C[C@H](OCCCN)[C@]12C", "note": "[CSA-13]", "values": [{"measurement": "viable bacteria per tube", "setting": "MRSA; bone plug coated with silicone containing 16% CSA-13 (w/w)", "value": "about 1×10^3 CFU"}, {"measurement": "viable bacteria", "setting": "MRSA; bone plug coated with silicone containing 16% CSA-13", "value": "considerable numbers of viable bacteria"}, {"measurement": "viable bacteria per tube", "setting": "MRSA; bone plug coated with silicone containing 18% CSA-13 (w/w)", "value": "essentially no viable bacterial"}, {"measurement": "viable bacteria per tube", "setting": "MRSA; bone plug coated with silicone containing 20% CSA-13 (w/w)", "value": "about 5×10^2 CFU"}, {"measurement": "viable bacteria", "setting": "MRSA; bone plug coated with silicone containing 20% CSA-13, compared with 18%", "value": "caught up to the 18"}, {"measurement": "numbers of viable bacteria (CFU/ml) over time", "setting": "MRSA; tubes containing a bone plug with CSA-13 (16%, 18% and 20%), 0-24 h", "value": "dropped dramatically"}, {"measurement": "sheep showing signs of osteomyelitis (histology)", "setting": "biofilms; Group 2 (n=9): biofilm", "value": "none"}, {"measurement": "sheep showing signs of osteomyelitis (histology)", "setting": "biofilms; Group 4 (n=8): no biofilm", "value": "none"}]}]}
